Results: patent US11571459B2, “Methods for treating cancer using PS-targeting antibodies with immuno-oncology agents” (ONCXERNA THERAPEUTICS, INC., priority 2017, dated 2023)

Tests used:
[1] = tested on: PS; experiment: ELISA binding to PS-coated plates; details: phospholipid-coated ELISA plates
Description: The 3G4 antibody was produced by immunizing mice with autologous, PS-positive endothelial cells, as reported in Ran et al., 2005. The 3G4 antibody was tested for binding to PS in a standard ELISA in the presence and absence of serum, and was initially characterized as being “serum-independent”, i.e., an antibody that binds to PS in the absence of serum.
In a follow-on study, the binding of the 2aG4 antibody to PS was tested in an ELISA in the presence of varying concentrations of human β2GPI.
These included binding to PS in ELISAs, FACS analyses using PS-positive cells and functional assays in the form of an NFAT surrogate ADCC bioassay (Larson et al., 2013).

[2] = tested on: previously untreated locally advanced or metastatic non-squamous NSCLC; experiment: Phase II (PPHM 1001) paclitaxel/carboplatin with or without bavituximab; assay type: in vivo, human; details: functional β2GPI ≥200 μg/mL; bavituximab given with paclitaxel/carboplatin
[3] = tested on: previously-treated Stage IIIb/IV non-squamous NSCLC; experiment: Phase III trial of bavituximab plus docetaxel in NSCLC
Source text: This global, double-blind Phase III trial was initiated in 2012. Selection criteria were for patients with Stage IIIb/IV non-squamous NSCLC who progressed on platinum-doublet chemotherapy (should have progressed on appropriate targeted therapy if known EGFR or ALK mutation), with ECOG PS 0-1 and prior immunotherapy allowed (ECOG is the performance status scale defined by the Eastern Cooperative Oncology Group). […] The primary endpoint was overall survival (OS) and secondary endpoints included objective response rate (Independent Central Review, ICR), progression-free survival (ICR), safety, PK, Quality of Life (LCSS) and exploratory biomarkers, including immune correlates.
OS was analyzed by VeriStrat subgroups using Kaplan-Meier statistical methods.
A single cutoff method was first used to assess the patient β2GPI data.
The initial analyses described above prompted further, extensive analyses of the data in 592 evaluable patients. These analyses used a two cutoff method (Klein & Moeschberger, 2003).
Archival tissue obtained at the time of diagnosis was requested, but not required, in the Phase III trial of Example X. Formalin-fixed paraffin-embedded (FFPE) slides were stained with antibodies for a panel of lymphoid (or tumor) cell markers, as described in Feng et al., 2015: CD3+, CD8+, FoxP3+, PD-L1+, CD163+ and CK+ (cytokeratin, an epithelial carcinoma marker) using a mutliplex (6-plex) quantitative immunohistochemistry (IHC) assay (OPAL®, PerkinElmer, Waltham, Mass., USA) and using DAPI. The PD-L1 antibody used was the rabbit anti-PD-L1 antibody termed E1L3N® XP® (Cell Signaling Technology, (CST), Danvers, Mass., Catalogue #13684; Mahoney et al., 2015). Baseline PD-L1 expression was retrospectively scored on tumor cells (TC, i.e., CK+) and PD-L1 expressing tumor cells were classified according to their percentage within the total number of tumor cells using established assays and classifications (Fehrenbacher et al., 2016), as follows: TC3≥50%; TC2≥5% and ≤50%; TC1≥1% and <5%; and TC0<1%. Cox regression models for PD-L1 IHC subgroup populations were used for correlation with OS.
Kaplan-Meier statistical methods and Cox proportional hazard models were utilized to evaluate and contrast the correlation of peripheral (and intratumoral) IFNγ levels with OS based on a data cut from the Phase III trial (Example X) dated Feb.

[4] = tested on: previously treated non-squamous NSCLC; details: in vivo
Description: The primary objective of this study was to compare the ORR (CR+PR) among the treatment arms. Secondary objectives included comparing PFS, DR, OS, safety and PK.
Additional blood draws were performed for these patients during Cycles 1 and 2 at specified time points.
Samples from the NSCLC Phase II trial of Example IX (PPHM 0902) were tested using the functional β2GPI assay of Example XII.

[5] = tested on: previously untreated stage IV pancreatic cancer; experiment: Phase II (PPHM 1002) gemcitabine with or without bavituximab; assay type: in vivo, human; details: for median overall survival: at study closure
Description: The primary objective was to compare the OS of patients among the treatment arms. Secondary objectives included comparing PFS, ORR, DR and safety.
Gemcitabine (1000 mg/m^2) was given on days 1, 8, and 15 of each 28-day cycle (4 weeks) until disease progression or unacceptable toxicities. A total of 70 patients were enrolled to the study. In general, the patient population had very extensive disease burden, which may have reduced the response in both arms.
The levels of pre-treatment functional β2GPI ranged from 82.5 to 343.2 μg/ml for all patients. For these 31 patients, the mean level of pre-treatment functional β2GPI (219.2 μg/ml) was consistent with the average reported in the literature.

[6] = Phase I dose escalation study of bavituximab monotherapy in refractory advanced solid tumors: PK, safety
Description: Samples were collected from patients in the 0.1 and 0.3 mg/kg dose cohorts before the study, on days 0, 1, 2, 4, 7, 10, 14, and every 7 days from days 21 to 70. Samples were collected from patients in the 1 and 3 mg/kg dose cohorts before the study, on days 0, 1, 2, 4, 7, 14, 21, 22, 23, 25, and every 7 days from days 28 to 56.

[7] = biological target: T1, functional β2GPI (Homo sapiens, UniProt P02749); experiment: Functional β2GPI assay (PS-coated plate, bavituximab-HRP); assay type: binding; details: for concentration read out in functional β2GPI assay: recombinant or plasma-derived β2GPI; for Conc. (ng/mL) read out in Functional β2GPI Assay: PS-coated plate, bavituximab-HRP, nicked vs intact β2GPI samples
T1 construct: Samples of β2GPI purified from human plasma and recombinant human β2GPI were both treated with plasmin; from tissue; host or cells: human plasma / serum
T1 sequence (P02749 20-345): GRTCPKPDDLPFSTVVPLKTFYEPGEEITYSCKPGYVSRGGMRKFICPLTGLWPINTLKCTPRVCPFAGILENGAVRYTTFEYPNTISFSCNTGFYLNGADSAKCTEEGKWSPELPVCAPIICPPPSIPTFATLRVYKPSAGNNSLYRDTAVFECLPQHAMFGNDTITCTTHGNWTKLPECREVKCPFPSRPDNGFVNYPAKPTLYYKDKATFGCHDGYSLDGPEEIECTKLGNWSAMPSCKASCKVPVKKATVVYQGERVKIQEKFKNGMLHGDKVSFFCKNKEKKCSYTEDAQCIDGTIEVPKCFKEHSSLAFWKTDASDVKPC
Source text: The following particular materials and equipment were used in the assay to generate the Results presented in this example under Sections B1 and B2. Materials: 96-well medium binding flat bottom plates (Greiner BioOne, cat #655001); 96-well non-binding round bottom plates (Costar, cat #3605); hexane (Sigma, cat #32293); PS antigen (Sigma, cat #P6641); ovalbumin (Sigma, cat #A5503); chromogenic substrate, tetramethylbenzidine (TMB), (KPL, cat #50-76-00); 2M H2SO4 (Fisher, Cat #SA818-4); plate covers (Fisher 015-027-11); adhesive plate sealer (VWR 232701); reagent reservoirs (VistaLab Cat #3054-1000). 1.5 mL microcentrifuge tubes, 50 mL conical tubes and 15 mL conical tubes were also utilized.
The Wash Buffer is IX phosphate-buffered saline (PBS) and the Blocking Buffer is 2% Ovalbumin in IX PBS.
The bavituximab antibody was conjugated to horseradish peroxidase (HRP) to prepare a bavituximab-HRP detection agent for use in the assay. The conjugation was performed using EZ-Link® Plus Activated Peroxidase (Thermo Scientific, Cat #31487) following the procedure for conjugating activated peroxidase to an antibody at pH 7.2 provided by the manufacturer. […] This was added to 1 mg of lyophilized EZ-Link Plus activated peroxidase to reconstitute. Immediately following reconstitution, 10 μL of 5M sodium cyanoborohydride solution was added to the reaction and incubated for 1 hour at room temperature. Once incubation was completed, 20 μL of quenching buffer was added and incubated for 15 minutes at room temperature. Conjugated bavituximab-HRP (1 mg/mL) was stored at 4° C. for up to 4 weeks.
The ELISA plates were coated with the PS antigen as follows: 5 μg/mL PS antigen was prepared and diluted into 6 mL of hexane in a fume hood with the blower off. 50 μL of PS solution was added to each well using a 12-channel pipette. The fume hood blower was turned back on and the hexane allowed to evaporate for 30-45 minutes, typically 30 minutes.
The PS-coated ELISA plates were blocked as follows: 100 mL per plate of the Blocking Buffer (2% Ovalbumin in IX PBS) was prepared. 200 μL of Blocking Buffer was added to each well using a 12-channel pipette.
The β2GPI standards for the positive control were obtained from Haematologic Technologies, Inc. (HTI; cat #B2G1-0001-C; 1.0 mg/ml) in a buffer of 0.2 M Glycine, 0.15 M NaCl, pH 7.4. […]

[8] = 70% of targeted OS events reached
[9] = about 85% of targeted OS events

Q: For “2aG4: mouse IgG2a chimeric version of the 3G4 antibody”, which “binding to phospholipids in standard ELISA” value [1] is on record?
A: essentially the same affinity and binding profile as the 3G4 antibody

Q: With “paclitaxel/carboplatin [reference compound]” as the molecule, how does the mOS [2] read?
A: 13.2 months

Q: With `CC(=O)O[C@@]12CO[C@@H]1C[C@H](O)[C@@]1(C)C(=O)[C@H](O)C3=C(C)[C@@H](OC(=O)[C@H](O)[C@@H](NC(=O)OC(C)(C)C)c4ccccc4)C[C@@](O)([C@@H](OC(=O)c4ccccc4)[C@H]21)C3(C)C` [docetaxel, reference compound] as the molecule, how does the “median OS” value ([3]; 12 months follow-up, about 85% of targeted OS events) read?
A: 10.9 months

Q: And the mOS [3, 8]?
A: 10.8 months

Q: And the “median PFS” value [3, 8]?
A: 3.9 months

Q: What about the mOS ([3]; IFNγ high, no subsequent IO) of the same molecule?
A: 9.2 months

Q: And the mOS ([3]; IFNγ high, received subsequent IO)?
A: 13.5 months

Q: What about the mOS ([3]; IFNγ low, no subsequent IO) of the same molecule?
A: 10.8 months

Q: And the mOS ([3]; IFNγ low, received subsequent IO)?
A: 12.1 months

Q: What about the mOS ([3]; VS Good patients (VeriStrat)) of the same molecule?
A: 11.8 months

Q: And the mOS ([3]; VS Poor patients (VeriStrat))?
A: 4.7 months

Q: And the “Grade 3 or higher adverse events” value [3, 9]?
A: 60%

Q: What about the ORR [3, 9] of the same molecule?
A: 11%

Q: What about the PFS [3, 9] of the same molecule?
A: 4.1 months

Q: What about the mOS ([3]; functional β2GPI 200-240 μg/mL) of the same molecule?
A: 7.7 months

Q: And the mOS ([3]; functional β2GPI ≥200 μg/mL, 578 evaluable patients)?
A: 9.4 months

Q: And the mOS ([3]; functional β2GPI ≥200 μg/mL, 592 evaluable patients)?
A: 10.1 months

Q: What about the mOS ([3]; functional β2GPI ≥200 μg/mL, with subsequent IO) of the same molecule?
A: 12.3 months

Q: What about the mOS ([3]; functional β2GPI ≥200 μg/mL, without subsequent IO) of the same molecule?
A: 9.2 months

Q: What about the mOS ([3]; higher PD-L1 expression (TC1/2/3, ≥1%)) of the same molecule?
A: 10.4 months

Q: What about the “HR, PD-L1 TC0 versus TC1/2/3 within arm” value ([3]; in vivo) of the same molecule?
A: 0.93

Q: And the mOS ([3]; negative PD-L1 expression (TC0, <1%))?
A: 11.1 months

Q: What about the mOS ([3]; patients receiving subsequent IO) of the same molecule?
A: 12.6 months

Q: And the mOS ([3]; patients who did not receive subsequent IO)?
A: 10.2 months

Q: What about the mOS ([3]; pre-treatment serum IFNγ high (≥ median 0.093 μg/mL)) of the same molecule?
A: 10.6 months

Q: What about the mOS ([3]; pre-treatment serum IFNγ low (< median 0.093 μg/mL)) of the same molecule?
A: 11.1 months

Q: What about the mOS ([3]; β2GPI less than 200 μg/mL, with subsequent IO) of the same molecule?
A: 18.6 months

Q: And the mOS ([3]; β2GPI less than 200 μg/mL, without subsequent IO)?
A: 11.6 months

Q: What about the pharmacokinetic drug-drug interaction [4] of the same molecule?
A: exhibited similar pharmacokinetic characteristics with or without the administration of bavituximab

Q: Which results are given for “bavituximab plus gemcitabine: treatment arm: gemcitabine with weekly 3 mg/kg bavituximab”?
A: median overall survival [5]: 5.6 months; TEAE anemia ([5]; in vivo): 35.3%; TEAE fatigue, constipation and anorexia (each) ([5]; in vivo): 32.4%; TEAE nausea ([5]; in vivo): 44.1%; response rate and survival probability at 1 year compared with gemcitabine only ([5]; in vivo): numerically higher response rate and survival probability at 1 year

Q: Which median overall survival [5] does the source give for `Nc1ccn([C@@H]2O[C@H](CO)[C@@H](O)C2(F)F)c(=O)n1` [gemcitabine, reference compound] here?
A: 5.2 months

Q: Which “Bavi” value ([6]; Cmax at 3 mg/kg expressed as molar concentration) does the source give for Bavi here?
A: 0.389 µM

Q: And the “Cmax” value ([6]; bavituximab 3 mg/kg, maximum concentration in blood (Example II; Gerber et al., 2011))?
A: 56.4 µg/mL

B1: β2GPI: plasmin-free (intact) β2GPI purified from human plasma or recombinant (protein)
chain: T1 sequence (P02749 20-345)
Q: For B1, which “concentration read out in functional β2GPI assay” value [7] is on record?
A: ~136 ng/mL

B2: plasmin-treated β2GPI: β2GPI treated with plasmin, majority nicked, does not bind PS (protein)
chain: T1 sequence (P02749 20-345)
Q: With B2 as the molecule, how does the “concentration read out in functional β2GPI assay” value [7] read?
A: 33 ng/mL

B3: Recombinant Plasmin-free β2GPI (protein, UniProt P02749 20-345, looked up)
Beta-2-glycoprotein 1: T1 sequence (P02749 20-345)
modifications: recombinant, plasmin-free
Q: With B3 as the molecule, how does the “Conc. (ng/mL) read out in Functional β2GPI Assay” value [7] read?
A: 136.42 ng/mL

B4: Human Plasmin-free β2GPI (protein, UniProt P02749 20-345, looked up)
Beta-2-glycoprotein 1: T1 sequence (P02749 20-345)
modifications: plasmin-free
Q: Which “Conc. (ng/mL) read out in Functional β2GPI Assay” value [7] does the source give for B4 here?
A: 136.42 ng/mL
